Bounds are passed on as bounds.

The fraction unbound is free concentration divided by total concentration. A word on the bioavailability: it is the share of a dose that reaches the circulation, judged against a reference dose that is usually intravenous. The clearance is a measure of how efficiently the substance is removed, as volume per time. Broadly, the inhibition is the share of the control response that was lost under treatment.

Series [1] relates to OCI-Ly10. Briefly: Growth inhibition of human OCILY10 cells at 0.17 uM incubated for 3 days (Rvb= -2%). Particulars: OCI-Ly10, 72 h, time 3 day, read-out: GI. It is filed as functional.
Series [2] concerns OCI-Ly10. Briefly: Growth inhibition of human OCILY10 cells at 0.33 uM incubated for 3 days (reference value: -2%). The class given is functional. Conditions: OCI-Ly10, 72 h, time 3 day, read-out: GI.
Series [3] deals with OCI-Ly10. Briefly: Growth inhibition of human OCILY10 cells at 1.7 uM incubated for 3 days (reference value: -2%). The class given is functional. Conditions: OCI-Ly10, 72 h, time 3 day, read-out: GI.
Series [4] deals with OCI-Ly10. As to the kind of experiment: Growth inhibition of human OCILY10 cells at 3.3 uM incubated for 3 days (reference value: -2%). It is filed as functional. Particulars: OCI-Ly10, 72 h, time 3 day, read-out: GI.
Series [5] deals with OCI-Ly10. Briefly: Growth inhibition of human OCILY10 cells at 10 uM incubated for 3 days (reference value: -2%). It is filed as functional. Particulars: OCI-Ly10, 72 h, time 3 day, read-out: GI.
Series [6] is described as follows: Metabolic stability in human cytosol assessed as intrinsic clearance. It is filed as ADME, subcellular.
Series [7] is described as follows: Plasma protein binding in rat assessed as free fraction by equilibrium dialysis analysis. The class given is ADME, cell-free. In general terms: Equilibrium dialysis compares concentrations on both sides of a semipermeable membrane.
Series [8] is described as follows: Plasma protein binding in mouse assessed as free fraction by equilibrium dialysis analysis. The class given is ADME, cell-free.
Series [9] can be described thus: Plasma protein binding in monkey assessed as free fraction by equilibrium dialysis analysis. Particulars: rhesus monkey. It is filed as ADME, cell-free, Macaca mulatta.
Series [10] can be described thus: Plasma protein binding in human assessed as free fraction by equilibrium dialysis analysis. The class given is ADME, cell-free.
Series [11] in a line: Metabolic stability in rat liver microsomes assessed as intrinsic clearance. It is filed as ADME, Microsome. Particulars: read-out: CLH.
Series [12] is described as follows: Metabolic stability in rat hepatocytes assessed as intrinsic clearance measured per 10^6 cells. The class given is ADME, cell-based, Hepatocyte. Conditions: read-out: CLH.
Series [13] can be described thus: Metabolic stability in mouse hepatocytes assessed as intrinsic clearance measured per 10^6 cells. It is filed as ADME, cell-based, Hepatocyte. Conditions: read-out: CLH.
Series [14] can be described thus: Metabolic stability in minipig hepatocytes assessed as intrinsic clearance measured per 10^6 cells. It is filed as ADME, cell-based, Sus scrofa domesticus, Hepatocyte. Conditions: pig, read-out: CLH.
Series [15] is described as follows: Metabolic stability in dog liver microsomes assessed as intrinsic clearance. Particulars: read-out: CLH. It is filed as ADME, Canis lupus familiaris, Microsome.
Series [16] in a line: Metabolic stability in dog hepatocytes assessed as intrinsic clearance measured per 10^6 cells. The class given is ADME, cell-based, Canis lupus familiaris, Hepatocyte. Particulars: read-out: CLH.
A short description of series [17]: Metabolic stability in monkey liver microsomes assessed as intrinsic clearance. The class given is ADME, Macaca mulatta, Microsome. Conditions: rhesus monkey, read-out: CLH. For orientation: Liver microsomes are vesicles of endoplasmic reticulum, rich in cytochrome P450 enzymes.
Series [18] in a line: Metabolic stability in monkey hepatocytes assessed as intrinsic clearance measured per 10^6 cells. It is filed as ADME, cell-based, Macaca mulatta, Hepatocyte. Particulars: rhesus monkey, read-out: CLH.
Series [19] can be described thus: Volume of distribution at steady state in Han Wistar rat at 2 mg/kg, po or 1 mg/kg, iv. It is filed as ADME, organism-based. Particulars: in vivo.
Series [20] can be described thus: Terminal half life in Han Wistar rat at 1 mg/kg, iv. It is filed as ADME, organism-based. Particulars: in vivo, read-out: beta t1/2 (converted).
Series [21] can be described thus: Oral bioavailability in Han Wistar rat at 2 mg/kg. The class given is ADME, organism-based. Particulars: in vivo.
Series [22] can be described thus: Volume of distribution at steady state in CD1 mouse at 1 mg/kg, po or 0.5 mg/kg, iv. The class given is ADME, organism-based. Particulars: in vivo.
A short description of series [23]: Terminal half life in CD1 mouse at 0.5 mg/kg, iv. The class given is ADME, organism-based. Particulars: in vivo, read-out: beta t1/2 (converted).
Series [24] is described as follows: Oral bioavailability in CD1 mouse at 1 mg/kg. Particulars: in vivo. The class given is ADME, organism-based.
Series [25] in a line: Clearance in cynomolgus monkey at 1 mg/kg, iv. It is filed as ADME, organism-based, Macaca fascicularis. Particulars: in vivo.
A short description of series [26]: Volume of distribution at steady state in cynomolgus monkey at 1 mg/kg, iv. The class given is ADME, organism-based, Macaca fascicularis. Particulars: in vivo, read-out: Vdss.
A short description of series [27]: Terminal half life in cynomolgus monkey at 1 mg/kg, iv. The class given is ADME, organism-based, Macaca fascicularis. Conditions: in vivo, read-out: beta t1/2 (converted).
Series [28] concerns the target T1, Phosphatidylinositol 4,5-bisphosphate 3-kinase catalytic subunit delta isoform (Homo sapiens) (UniProt O00329).
T1 sequence (whole entry): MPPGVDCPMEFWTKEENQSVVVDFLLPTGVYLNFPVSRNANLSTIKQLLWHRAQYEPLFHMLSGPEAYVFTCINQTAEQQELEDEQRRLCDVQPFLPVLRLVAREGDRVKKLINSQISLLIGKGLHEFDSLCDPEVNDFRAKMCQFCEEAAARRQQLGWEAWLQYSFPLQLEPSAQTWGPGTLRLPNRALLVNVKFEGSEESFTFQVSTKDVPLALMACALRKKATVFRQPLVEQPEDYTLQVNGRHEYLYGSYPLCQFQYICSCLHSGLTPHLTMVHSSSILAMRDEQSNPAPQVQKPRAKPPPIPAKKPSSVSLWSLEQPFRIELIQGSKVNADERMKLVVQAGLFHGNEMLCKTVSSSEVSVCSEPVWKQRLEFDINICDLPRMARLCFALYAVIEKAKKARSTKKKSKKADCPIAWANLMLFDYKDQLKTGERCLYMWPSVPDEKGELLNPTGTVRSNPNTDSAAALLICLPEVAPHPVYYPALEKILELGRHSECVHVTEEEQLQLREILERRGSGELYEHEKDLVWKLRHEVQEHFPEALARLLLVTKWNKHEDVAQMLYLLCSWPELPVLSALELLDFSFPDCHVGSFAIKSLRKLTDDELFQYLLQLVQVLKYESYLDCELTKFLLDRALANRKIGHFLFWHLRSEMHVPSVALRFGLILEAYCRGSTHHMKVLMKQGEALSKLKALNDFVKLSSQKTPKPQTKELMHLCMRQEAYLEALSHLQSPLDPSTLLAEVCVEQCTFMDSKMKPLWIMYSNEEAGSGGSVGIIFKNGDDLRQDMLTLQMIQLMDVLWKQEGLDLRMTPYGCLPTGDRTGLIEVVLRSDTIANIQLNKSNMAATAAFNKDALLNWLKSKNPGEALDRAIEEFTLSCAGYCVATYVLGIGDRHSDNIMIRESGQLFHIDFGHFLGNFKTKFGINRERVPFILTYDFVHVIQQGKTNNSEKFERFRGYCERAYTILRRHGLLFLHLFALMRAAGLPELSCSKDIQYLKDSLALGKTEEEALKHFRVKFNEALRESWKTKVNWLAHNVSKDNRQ
As to the kind of experiment: Inhibition of PI3Kdelta (unknown origin) at 0.1 uM relative to control.

A short description of series [29]: Metabolic stability in human liver microsomes assessed as half life. The class given is ADME, Microsome.
Series [30] is described as follows: Metabolic stability in human hepatocytes assessed as half life. The class given is ADME, cell-based, Hepatocyte.
Series [31] can be described thus: Oral bioavailability in rat at 1 mg/kg. The class given is ADME, organism-based. Particulars: in vivo.
In series [32] the test system is SUD4. As to the kind of experiment: Growth inhibition of human SU-DHL-4 cells at 10 uM incubated for 3 days (reference value: 2%). It is filed as functional. Particulars: SU-DHL-4, 72 h, time 3 day, read-out: GI.
Series [33] has as its system SUD4. Briefly: Growth inhibition of human SU-DHL-4 cells at 3.3 uM incubated for 3 days (reference value: 2%). It is filed as functional. Conditions: SU-DHL-4, 72 h, time 3 day, read-out: GI.
The test system of series [34] is SUD4. Briefly: Growth inhibition of human SU-DHL-4 cells at 1.7 uM incubated for 3 days (reference value: 2%). The class given is functional. Particulars: SU-DHL-4, 72 h, time 3 day, read-out: GI.
Series [35] deals with SUD4. As to the kind of experiment: Growth inhibition of human SU-DHL-4 cells at 0.33 uM incubated for 3 days (reference value: 2%). It is filed as functional. Conditions: SU-DHL-4, 72 h, time 3 day, read-out: GI.
Series [36] deals with SUD4. Briefly: Growth inhibition of human SU-DHL-4 cells at 0.17 uM incubated for 3 days (reference value: 2%). The class given is functional. Conditions: SU-DHL-4, 72 h, time 3 day, read-out: GI.
The nature of series [37]: Oral bioavailability in mouse at 1 mg/kg. It is filed as ADME, organism-based. Particulars: in vivo.

As for `CC[C@@H]1[C@H](F)C(=O)N[C@@H]1COc1nccc2cc(C(N)=O)c(OC)cc12` [ZIMLOVISERTIB], the inhibition of growth at 0.17 µM in the series on OCI-Ly10 [1] was determined as 5%. Further, the inhibition of growth at 0.33 µM with OCI-Ly10 [2] was 5%. The inhibition of growth at 1.7 µM in the series on OCI-Ly10 [3] amounted to 10%. In the series with OCI-Ly10 [4], the inhibition of growth at 3.3 µM came to 20%. Also, the inhibition of growth at 10 µM with OCI-Ly10 [5] was 63%.
Consider `Cc1ncc(-c2nc3c(OC4(C)CC4)nc(Nc4cnn(C5CCN(C)CC5)c4)nc3cc2F)cn1`, for which the microsomal CLint is < 0.5 µL/min/mg in [6], 16 µL/min/mg in series [11], 21 µL/min/mg in series [15] and 35 µL/min/mg in [17]. For the same molecule, the fraction unbound was determined as 0.21 in series [7], 0.16 in [8], 0.33 in series [9] and 0.21 in series [10]. The hepatocyte CLint was determined as 5.6 µL/min/1e6 cells in series [12]; 11 µL/min/1e6 cells in series [13]; 8.2 µL/min/1e6 cells in [14]; 4.5 µL/min/1e6 cells in series [16]; 4.7 µL/min/1e6 cells in [18]. Besides, the Vdss in series [19] stood at 4.3 L/kg; in series [22] it was 4.1 L/kg. The half-life is 5.2 h in [20]; 4.2 h in series [23]; 1.4 h in series [27]; 3 h in series [29]; 30 h in series [30]. Also, the bioavailability in [21] came out at 55%; in [24] it was 66%. In [25], the clearance came to 68 mL/min/kg. Besides, the Vd in series [26] was 8.6 L/kg. The molecule further showed an inhibition in series [28] of 61%.
Take `Cc1ncc(-c2nc3c(NC(C)C)nc(Nc4cnn(C5CC6(C5)CN(C)C6)c4)nc3cc2F)cn1`: the bioavailability in series [31] and in series [37] was ≤ 10% throughout. For the same molecule, the inhibition of growth at 10 µM in the series with SUD4 [32] was found to be 6%. The inhibition of growth at 3.3 µM in the series on SUD4 [33] worked out at 4%. Moreover, the inhibition of growth at 1.7 µM in the series with SUD4 [34] was found to be 3%. Besides, the inhibition of growth at 0.33 µM in the series with SUD4 [35] worked out at 3%. Besides, in the series on SUD4 [36], the inhibition of growth at 0.17 µM amounted to 2%.
